Assay results taken from patent US9884823B2, “Oxime ether acetate compound, preparation method therefor and weeding application thereof” (ZHEJIANG UNIVERSITY OF TECHNOLOGY, priority 2014, dated 2018).
Like-named read-outs stand apart in the source and are kept apart here.

Assays:
Dog point = experiment: Potted plants live body test; type: in vivo; conditions: 150 g a.i./ha, 30 days, Table 9
Description: (§1) The raw drug which was selected from the compounds in table 1 was weighed using an analytical balance (0.0001 g), and dissolved in DMF containing 1 wt % Tween-80 emulsifier to prepare a mother liquor of raw drug with a mass concentration of 1.0˜5.0%, and then diluted with distilled water, to prepare preparations at desired concentrations according to the ratio of ingredients in Examples 8, 9 and 10.
(§2) The test targets were mustard, small quinoa, Abutilon, amaranthus retroflexus, Eclipta prostrata, crabgrass, dog point. A pot with a diameter of 7.5 cm was used, filled with composite soil (garden soil:nursery matrix, 1:2, v/v) to ¾ of the pot, then the above […] kinds of weeds targets were directly seeded (germination rate ≧85%), covered with soil at a thickness of 0.2 cm. When the weeds grew to 3-leaf stage, pre-emergence soil treatment for weeds planting, and then spraying was performed.

amaranthus retroflexus = experiment: Potted plants live body test; type: in vivo; conditions: 150 g a.i./ha, 30 days, Table 9
Description: as §1, §2

Eclipta prostrata = experiment: Potted plants live body test; type: in vivo; conditions: 150 g a.i./ha, 30 days, Table 9
Description: as §1, §2

Crabgrass = experiment: Potted plants live body test; type: in vivo; conditions: 150 g a.i./ha, 30 days, Table 9
Description: as §1, §2

Abutilon = experiment: Potted plants live body test; type: in vivo; conditions: 150 g a.i./ha, 30 days, Table 9
Description: as §1, §2

[1] = system: grass weeds such as crabgrass, barnyard grass, dog point; conditions: 150 g a.i./ha; for activity for grass targets such as crabgrass and dog point: 30 days after administration, Table 9 summary; for activity on grass weeds such as crabgrass, dog point: postemergence spraying, 30 days
Description: as §1, §2

[2] = system: broadleaf weeds such as mustard, small quinoa, Abutilon, Amaranthus retroflexus and Eclipta prostrate; conditions: 150 g a.i./ha; for herbicidal activity on broadleaf weeds targets: 30 days after administration, Table 9 summary; for activity on the growth of broadleaf weeds: postemergence spraying, 30 days, vs clear water control
Description: as §1, §2

Small quinoa = conditions: 150 g a.i./ha, 30 days, Table 9
Description: as §1, §2

Cucumber = experiment: Culture dish method (general screening); type: in vivo; conditions: 100 mg/L, 7 days
Description: (§3) Culture dish method (general screening): The test targets were radish, cucumber, rape, wheat, sorghum and barnyard grass; the seeds of wheat, sorghum and radish were germinated in advance, and the uniform emerge-germinating seeds were used in the test.

Wheat = experiment: Culture dish method (general screening); type: in vivo; conditions: 100 mg/L, 7 days
Description: as §3

Chinese sorghum = experiment: Culture dish method (general screening); type: in vivo; conditions: 100 mg/L, 7 days
Description: as §3

Radish = experiment: Culture dish method (general screening); type: in vivo; conditions: 100 mg/L, 7 days
Description: as §3

Rape = experiment: Culture dish method (general screening); type: in vivo; conditions: 100 mg/L, 7 days
Description: as §3

Barnyardgrass = experiment: Culture dish method (general screening); type: in vivo, barnyard grass; conditions: 100 mg/L, 7 days
Description: as §3

Mustard = conditions: 150 g a.i./ha, 30 days, Table 9

## CON=C(C(=O)OC)c1ccccc1COc1cccc(-c2ncc(Cl)cc2Cl)c1 [Compound 98]
Dog point; Postemergence spraying
  efficiency, Dog point: 0%
Dog point; Pre-emergence soil treatment
  efficiency, Dog point: 0%
Amaranthus retroflexus; Postemergence spraying
  efficiency, amaranthus retroflexus: 80%
Amaranthus retroflexus; Pre-emergence soil treatment
  efficiency, amaranthus retroflexus: 50%
Eclipta prostrata; Postemergence spraying
  efficiency, Eclipta prostrata: 80%
Eclipta prostrata; Pre-emergence soil treatment
  efficiency, Eclipta prostrata: 50%
Crabgrass; Postemergence spraying
  efficiency, Crabgrass: 0%
Crabgrass; Pre-emergence soil treatment
  efficiency, Crabgrass: 0%
Abutilon; Postemergence spraying
  efficiency, Abutilon: 80%
Abutilon; Pre-emergence soil treatment
  efficiency, Abutilon: 60%
[1]
  activity for grass targets such as crabgrass and dog point: poor activity
  activity on grass weeds such as crabgrass, dog point: almost have no activity
[2]
  herbicidal activity on broadleaf weeds targets: herbicidal activity
  activity on the growth of broadleaf weeds: inhibitory activity
Small quinoa; Postemergence spraying
  efficiency, Small quinoa: 75%
Small quinoa; Pre-emergence soil treatment
  efficiency, Small quinoa: 45%
Cucumber
  inhibition rate, Cucumber Root: 50%
  inhibition rate, Cucumber Stem: 80%
Wheat
  inhibition rate, Wheat Root: 20%
  inhibition rate, Wheat Stem: 0%
Chinese sorghum
  inhibition rate, Chinese sorghum Root: 50%
  inhibition rate, Chinese sorghum Stem: 30%
Radish
  inhibition rate, Radish Root: 50%
  inhibition rate, Radish Stem: 80%
Rape
  inhibition rate, Rape Root: 50%
  inhibition rate, Rape Stem: 80%
Barnyardgrass
  inhibition rate, Barnyardgrass Root: 60%
  inhibition rate, Barnyardgrass Stem: 20%
Mustard; Postemergence spraying
  efficiency, Mustard: 100%
Mustard; Pre-emergence soil treatment
  efficiency, Mustard: 50%

## CON=C(C(=O)OC)c1ccccc1COc1cc(-c2ccccn2)ccc1C(F)(F)F [Compound 112]
Dog point; Postemergence spraying
  efficiency, Dog point: 0%
Dog point; Pre-emergence soil treatment
  efficiency, Dog point: 0%
Amaranthus retroflexus; Postemergence spraying
  efficiency, amaranthus retroflexus: 80%
Amaranthus retroflexus; Pre-emergence soil treatment
  efficiency, amaranthus retroflexus: 50%
Eclipta prostrata; Postemergence spraying
  efficiency, Eclipta prostrata: 60%
Eclipta prostrata; Pre-emergence soil treatment
  efficiency, Eclipta prostrata: 0%
Crabgrass; Postemergence spraying
  efficiency, Crabgrass: 0%
Crabgrass; Pre-emergence soil treatment
  efficiency, Crabgrass: 0%
Abutilon; Postemergence spraying
  efficiency, Abutilon: 50%
Abutilon; Pre-emergence soil treatment
  efficiency, Abutilon: 0%
[1]
  activity for grass targets such as crabgrass and dog point: poor activity
  activity on grass weeds such as crabgrass, dog point: almost have no activity
[2]
  herbicidal activity on broadleaf weeds targets: herbicidal activity
  activity on the growth of broadleaf weeds: inhibitory activity
Small quinoa; Postemergence spraying
  efficiency, Small quinoa: 75%
Small quinoa; Pre-emergence soil treatment
  efficiency, Small quinoa: 45%
Cucumber
  inhibition rate, Cucumber Root: 50%
  inhibition rate, Cucumber Stem: 80%
Wheat
  inhibition rate, Wheat Root: 0%
  inhibition rate, Wheat Stem: 0%
Chinese sorghum
  inhibition rate, Chinese sorghum Root: 0%
  inhibition rate, Chinese sorghum Stem: 0%
Radish
  inhibition rate, Radish Root: 50%
  inhibition rate, Radish Stem: 80%
Rape
  inhibition rate, Rape Root: 50%
  inhibition rate, Rape Stem: 80%
Barnyardgrass
  inhibition rate, Barnyardgrass Root: 0%
  inhibition rate, Barnyardgrass Stem: 0%
Mustard; Postemergence spraying
  efficiency, Mustard: 100%
Mustard; Pre-emergence soil treatment
  efficiency, Mustard: 50%

## CON=C(C(=O)OC)c1ccccc1COc1ccc(-c2cccc(C)n2)cc1 [Compound 120]
Dog point; Postemergence spraying
  efficiency, Dog point: 0%
Dog point; Pre-emergence soil treatment
  efficiency, Dog point: 0%
Amaranthus retroflexus; Postemergence spraying
  efficiency, amaranthus retroflexus: 20%
Amaranthus retroflexus; Pre-emergence soil treatment
  efficiency, amaranthus retroflexus: 0%
Eclipta prostrata; Postemergence spraying
  efficiency, Eclipta prostrata: 30%
Eclipta prostrata; Pre-emergence soil treatment
  efficiency, Eclipta prostrata: 0%
Crabgrass; Postemergence spraying
  efficiency, Crabgrass: 0%
Crabgrass; Pre-emergence soil treatment
  efficiency, Crabgrass: 0%
Abutilon; Postemergence spraying
  efficiency, Abutilon: 50%
Abutilon; Pre-emergence soil treatment
  efficiency, Abutilon: 0%
[1]
  activity for grass targets such as crabgrass and dog point: poor activity
  activity on grass weeds such as crabgrass, dog point: almost have no activity
[2]
  herbicidal activity on broadleaf weeds targets: herbicidal activity
  activity on the growth of broadleaf weeds: inhibitory activity
Small quinoa; Postemergence spraying
  efficiency, Small quinoa: 60%
Small quinoa; Pre-emergence soil treatment
  efficiency, Small quinoa: 50%
Cucumber
  inhibition rate, Cucumber Root: 70%
  inhibition rate, Cucumber Stem: 30%
Wheat
  inhibition rate, Wheat Root: 20%
  inhibition rate, Wheat Stem: 0%
Chinese sorghum
  inhibition rate, Chinese sorghum Root: 50%
  inhibition rate, Chinese sorghum Stem: 30%
Radish
  inhibition rate, Radish Root: 50%
  inhibition rate, Radish Stem: 0%
Rape
  inhibition rate, Rape Root: 60%
  inhibition rate, Rape Stem: 0%
Barnyardgrass
  inhibition rate, Barnyardgrass Root: 60%
  inhibition rate, Barnyardgrass Stem: 20%
Mustard; Postemergence spraying
  efficiency, Mustard: 40%
Mustard; Pre-emergence soil treatment
  efficiency, Mustard: 20%
